Data set [1] has as its target T1, Coagulation factor X (Homo sapiens, UniProt P00742). As to the kind of experiment: Inhibition of human F10a by fluorescence assay.
In data set [2] the test system is Plasma. As to the kind of experiment: Anticoagulant activity in human plasma assessed as drug level causing 1.5 times prolongation of prothrombin time. The format is functional.
The target in data set [3] is Albumin (Homo sapiens, UniProt P02768). The data set can be described thus: Binding affinity to human serum albumin. It is filed as ADME. Particulars: isolated protein.
Sequence of Albumin (P02768 whole entry): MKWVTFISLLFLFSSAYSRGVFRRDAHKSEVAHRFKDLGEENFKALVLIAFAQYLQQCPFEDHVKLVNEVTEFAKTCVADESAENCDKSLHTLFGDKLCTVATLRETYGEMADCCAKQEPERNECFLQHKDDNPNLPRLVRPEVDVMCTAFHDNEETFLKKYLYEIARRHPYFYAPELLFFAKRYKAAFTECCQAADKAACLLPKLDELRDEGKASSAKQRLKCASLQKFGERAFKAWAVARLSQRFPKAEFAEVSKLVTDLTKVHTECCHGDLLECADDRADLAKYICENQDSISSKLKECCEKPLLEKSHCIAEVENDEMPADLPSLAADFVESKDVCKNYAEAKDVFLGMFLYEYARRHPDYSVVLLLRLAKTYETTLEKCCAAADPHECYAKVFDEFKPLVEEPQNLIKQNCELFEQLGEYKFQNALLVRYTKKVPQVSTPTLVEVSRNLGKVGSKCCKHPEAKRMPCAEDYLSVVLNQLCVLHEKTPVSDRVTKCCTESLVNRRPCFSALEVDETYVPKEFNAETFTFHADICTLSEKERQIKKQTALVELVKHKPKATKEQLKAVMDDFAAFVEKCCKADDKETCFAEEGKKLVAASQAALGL
For data set [4], the target named is T1, Coagulation factor X. As to the kind of experiment: Inhibition of human F10a by chromogenic assay.
A short description of data set [5]: Half life in Sprague-Dawley rat. Particulars: in vivo. It is filed as ADME, organism-based.
The nature of data set [6]: Plasma clearance in Sprague-Dawley rat. The format is ADME, organism-based.
Data set [7] is described as follows: Volume of distribution at steady state in Sprague-Dawley rat. The format is ADME, organism-based. Particulars: in vivo, read-out: Vdss.
A short description of data set [8]: Oral bioavailability in Sprague-Dawley rat. The format is ADME, organism-based. Particulars: in vivo.

T1 sequence (P00742 41-179 limits assumed): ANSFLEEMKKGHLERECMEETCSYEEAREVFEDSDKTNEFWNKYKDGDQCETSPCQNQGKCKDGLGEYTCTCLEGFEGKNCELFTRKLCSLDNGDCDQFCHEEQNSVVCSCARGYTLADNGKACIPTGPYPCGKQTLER
T1 sequence (P00742 235-488 limits assumed): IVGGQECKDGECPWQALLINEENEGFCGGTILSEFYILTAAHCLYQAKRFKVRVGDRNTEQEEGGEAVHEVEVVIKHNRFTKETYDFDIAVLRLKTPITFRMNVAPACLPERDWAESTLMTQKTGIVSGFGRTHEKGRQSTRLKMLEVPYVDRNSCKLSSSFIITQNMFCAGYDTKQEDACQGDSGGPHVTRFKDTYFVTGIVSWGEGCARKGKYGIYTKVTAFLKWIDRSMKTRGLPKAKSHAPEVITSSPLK

The compound `CS(=O)(=O)c1ccccc1-c1ccc(N2CCC(NS(=O)(=O)c3cc4cc(Cl)ccc4o3)C2=O)c(F)c1` (stereo not given) had a Ki in data set [1] of 6.2 nM. Moreover, the Activity in data set [2] is more than 100 µM.

As for `O=C1C(NS(=O)(=O)c2ccc3cc(Cl)ccc3c2)CCN1c1ccc(-c2ccoc2)cc1F` (stereo not given), in data set [1], affinity was put at a Ki of 74.6 nM. In addition, the Activity in data set [2] was more than 100 µM.

For `CS(=O)(=O)Nc1ccccc1-c1ccc(N2CCC(NS(=O)(=O)/C=C/c3ccc(Cl)s3)C2=O)nc1` (stereo not given), the Activity in data set [2] turned out to be 58.4 µM; in data set [3] it was 98.2%. In data set [4], this compound had a Ki of 14 nM.

Consider `CS(=O)(=O)c1ccccc1-c1ccc(N2CCC(NS(=O)(=O)c3cc4ccc(Cl)cc4o3)C2=O)c(F)c1` (stereo not given), for which the Ki in data set [1] was 1.1 nM. For the same compound, the Activity in data set [2] was more than 100 µM; in data set [3], 99.6%.

In data set [1], `O=C1C(NS(=O)(=O)c2ccc3cc(Cl)ccc3c2)CCN1c1ccc(-c2cccnc2)cc1F` (stereo not given) registered a Ki of 6.3 nM. Moreover, the Activity in data set [2] is more than 100 µM.

The compound `O=C1C(NS(=O)(=O)c2ccc3cc(Cl)ccc3c2)CCN1c1ccc(-n2cccn2)cc1F` (stereo not given) came in with a Ki in data set [1] of 2.7 nM. Further, the Activity in data set [2] is more than 100 µM.

Turning to `O=C1C(NS(=O)(=O)c2ccc3cc(Cl)ccc3c2)CCN1c1ccc(-c2ccccc2)cn1` (stereo not given), the affinity in data set [1] corresponds to a Ki of 80 nM. Also, the Activity in data set [2] is more than 100 µM.

In data set [1], `CNS(=O)(=O)c1ccccc1-c1ccc(N2CCC(NS(=O)(=O)/C=C/c3ccc(Cl)s3)C2=O)nc1` (stereo not given) yielded a Ki of less than 0.3 nM. In addition, in data set [2], the Activity worked out at 25 µM.

Consider `O=C1C(NS(=O)(=O)c2ccc3cc(Cl)ccc3c2)CCN1c1ccc(-c2ccncc2)cc1F` (stereo not given), for which the inhibition constant Ki in data set [1] came to 8.9 nM. For the same compound, the Activity in data set [2] is 92.9 µM.

Compound `CS(=O)(=O)c1ccccc1-c1ccc(N2CCC(NS(=O)(=O)c3ccc4cc(Cl)ccc4c3)C2=O)c(F)c1` (stereo not given) displayed an Activity in data set [3] of 98.8%. This compound had a half-life in data set [5] of 54 min. For the same compound, in data set [6], the clearance turned out to be 20 mL/min/kg. Besides, the Vd in data set [7] stood at 1.1 L/kg. This compound yielded a bioavailability in data set [8] of 10%.

The compound `CN(c1ccccc1-c1ccc(N2CCC(NS(=O)(=O)/C=C/c3ccc(Cl)s3)C2=O)nc1)S(C)(=O)=O` (stereo not given) showed a Ki in data set [1] of 9.1 nM. Also, the Activity in data set [2] is more than 100 µM.

The compound `Cn1cnc(-c2ccc(N3CCC(NS(=O)(=O)c4ccc5cc(Cl)ccc5c4)C3=O)c(F)c2)c1` (stereo not given) registered a Ki in data set [1] of 15.5 nM. In addition, the Activity in data set [2] was more than 100 µM.

With `NS(=O)(=O)c1ccccc1-c1ccc(N2CCC(NS(=O)(=O)/C=C/c3ccc(Cl)s3)C2=O)nc1` (stereo not given), the Activity in data set [3] stood at 98%.

`CS(=O)(=O)c1ccccc1-c1ccc(N2CCC(NS(=O)(=O)c3cc4nc(Cl)ccc4s3)C2=O)c(F)c1` (stereo not given) had a Ki in data set [1] of 2 nM. Moreover, the Activity in data set [2] was more than 100 µM.

Consider `CS(=O)(=O)c1ccccc1-c1ccc(N2CCC(NS(=O)(=O)/C=C/c3cc4ccc(Cl)cc4s3)C2=O)c(F)c1` (stereo not given), for which the inhibitory constant (Ki) in data set [1] is 0.1 nM. Moreover, the Activity in data set [2] turned out to be 28.7 µM.

The compound `O=C1C(NS(=O)(=O)/C=C/c2ccc(Cl)s2)CCN1c1ccc(-c2ccccc2C(F)(F)F)cn1` (stereo not given) gave a Ki in data set [1] of 6 nM. In addition, in data set [2], the Activity is more than 100 µM.

In data set [1], `O=C1C(NS(=O)(=O)c2ccc3cc(Cl)ccc3c2)CCN1c1ccc(-n2ccnc2)cc1F` (stereo not given) yielded a Ki of 4.4 nM. Further, the Activity in data set [2] was more than 100 µM.

In the case of `CS(=O)(=O)c1ccccc1-c1ccc(N2CCC(NS(=O)(=O)/C=C/c3ccc(Cl)s3)C2=O)nc1` (stereo not given), the Activity in data set [3] turned out to be 97.6%. Besides, the half-life in data set [5] was 36 min. The clearance in data set [6] was found to be 20 mL/min/kg. For the same compound, the Vd in data set [7] was 0.7 L/kg. Also, the bioavailability in data set [8] turned out to be 29%.

`Cn1ccnc1-c1ccc(N2CCC(NS(=O)(=O)c3ccc4cc(Cl)ccc4c3)C2=O)c(F)c1` (stereo not given) displayed a Ki in data set [1] of 1.1 nM. In addition, the Activity in data set [2] was determined as 54.5 µM.

On to `CN(C)C(=O)c1ccccc1-c1ccc(N2CCC(NS(=O)(=O)/C=C/c3ccc(Cl)s3)C2=O)nc1` (stereo not given), for which affinity in data set [1] was put at a Ki of 11.8 nM. For the same compound, in data set [2], the Activity is 78.6 µM.

`CS(=O)(=O)c1ccccc1-c1ccc(N2CCC(NS(=O)(=O)/C=C/c3ccc(Cl)cc3)C2=O)c(F)c1` (stereo not given) returned a Ki in data set [1] of less than 0.4 nM. Also, in data set [2], the Activity turned out to be 30 µM. In data set [5], this compound showed a half-life of 48 min. The clearance in data set [6] stood at 9.2 mL/min/kg. Besides, the Vd in data set [7] was 0.5 L/kg. This compound returned a bioavailability in data set [8] of 41%.

Turning to `CC(C)Oc1ccccc1-c1ccc(N2CCC(NS(=O)(=O)/C=C/c3ccc(Cl)s3)C2=O)nc1` (stereo not given), the Ki in data set [1] came to 180 nM. Also, the Activity in data set [2] is more than 100 µM.

`CN(C)S(=O)(=O)c1ccccc1-c1ccc(N2CCC(NS(=O)(=O)/C=C/c3ccc(Cl)s3)C2=O)nc1` (stereo not given) displayed a Ki in data set [1] of 0.4 nM. The Activity in data set [2] came out at 65.1 µM.

Compound `N#Cc1ccccc1-c1ccc(N2CCC(NS(=O)(=O)/C=C/c3ccc(Cl)s3)C2=O)nc1` (stereo not given) gave a Ki in data set [1] of 1.8 nM. Besides, in data set [2], the Activity was 73.7 µM.

Take `N#Cc1ncccc1-c1ccc(N2CCC(NS(=O)(=O)c3ccc4cc(Cl)ccc4c3)C2=O)c(F)c1` (stereo not given): in data set [1], affinity was put at a Ki of 0.7 nM. For the same compound, the Activity in data set [2] worked out at 64.3 µM.

On to `O=C1C(NS(=O)(=O)c2ccc3cc(Cl)ccc3c2)CCN1c1ccc(-c2ccccc2)cc1F` (stereo not given), for which, in data set [1], the Ki was determined as 215 nM. The Activity in data set [2] was more than 100 µM.

In data set [3], `CS(=O)(=O)c1ccccc1-c1ccc(N2CCC(NS(=O)(=O)/C=C/c3ccc(Cl)s3)C2=O)c(F)c1` (stereo not given) displayed an Activity of 97.6%.

In turn, `CC(C)(C)c1ccccc1-c1ccc(N2CCC(NS(=O)(=O)/C=C/c3ccc(Cl)s3)C2=O)nc1` (stereo not given) registered a Ki in data set [4] of 2330 nM.

Usually Ki stands for the equilibrium dissociation constant of an inhibitor or competing ligand from its target. The low end stands for higher affinity, the high end for lower affinity. What is called half-life is the time in which the quantity being followed falls by half. High values mean slow decline, low ones rapid decline. Usually clearance stands for the volume of plasma or blood freed of the substance per unit of time. A higher clearance goes with a high capacity for elimination. The term bioavailability denotes dose-corrected exposure relative to a reference, in per cent.
